Measurements as given in article PMC3961306, “Comparison of the Cancer Gene Targeting and Biochemical Selectivities of All Targeted Kinase Inhibitors Approved for Clinical Use” (PLoS ONE, 2014).

Key:
Experiment in all cases: Kinase profiling in a biochemical assay panel (mobility shift assays and ELISA), %-inhibition at 1 μM; selectivity entropy
[1] = target: T1, panel of more than 300 wild-type and mutant kinases (313 kinase panel) (Homo sapiens, UniProt P29323); conditions: kinase EPHB2; compound at 1 μM
T1 sequence (P29323 19-1055): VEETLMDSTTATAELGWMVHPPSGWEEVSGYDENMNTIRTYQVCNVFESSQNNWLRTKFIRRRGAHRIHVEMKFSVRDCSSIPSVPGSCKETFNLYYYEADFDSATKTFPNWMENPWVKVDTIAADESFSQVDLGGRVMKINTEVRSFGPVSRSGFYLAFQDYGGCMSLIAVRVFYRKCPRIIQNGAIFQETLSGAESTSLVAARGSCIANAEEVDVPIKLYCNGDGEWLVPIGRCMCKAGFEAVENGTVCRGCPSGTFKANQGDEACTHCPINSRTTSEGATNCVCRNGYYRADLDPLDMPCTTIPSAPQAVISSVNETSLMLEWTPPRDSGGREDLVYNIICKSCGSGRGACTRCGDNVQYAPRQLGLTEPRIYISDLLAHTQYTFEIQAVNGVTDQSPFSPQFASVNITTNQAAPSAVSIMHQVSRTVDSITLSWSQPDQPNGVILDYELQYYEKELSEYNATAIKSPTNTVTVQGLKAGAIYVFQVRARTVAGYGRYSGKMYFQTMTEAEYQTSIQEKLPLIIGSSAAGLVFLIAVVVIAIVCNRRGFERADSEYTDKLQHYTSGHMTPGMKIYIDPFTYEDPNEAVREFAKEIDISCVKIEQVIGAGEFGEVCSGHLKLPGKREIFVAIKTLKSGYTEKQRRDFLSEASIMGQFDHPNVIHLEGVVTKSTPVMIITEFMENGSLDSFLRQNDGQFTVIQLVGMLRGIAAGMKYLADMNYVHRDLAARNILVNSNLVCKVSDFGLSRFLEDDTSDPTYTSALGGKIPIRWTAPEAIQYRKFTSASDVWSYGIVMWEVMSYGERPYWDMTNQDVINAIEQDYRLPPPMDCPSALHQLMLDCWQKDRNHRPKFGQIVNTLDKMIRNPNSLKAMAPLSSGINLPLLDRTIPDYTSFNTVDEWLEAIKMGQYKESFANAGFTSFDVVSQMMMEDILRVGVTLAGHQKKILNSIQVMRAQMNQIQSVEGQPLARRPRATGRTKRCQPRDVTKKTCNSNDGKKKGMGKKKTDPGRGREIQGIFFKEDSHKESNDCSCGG

[2] = target: panel of more than 300 wild-type and mutant kinases (313 kinase panel) (Homo sapiens, UniProt Q8IU85); conditions: kinase CaMK1δ; 1 μM compound
[3] = target: panel of more than 300 wild-type and mutant kinases (313 kinase panel) (Homo sapiens, UniProt P08069); conditions: kinase IGF1R; compound at 1 μM
[4] = target: panel of more than 300 wild-type and mutant kinases (313 kinase panel) (Homo sapiens, UniProt P49760); conditions: kinase CLK2; 1 μM compound
[5] = target: T2, panel of more than 300 wild-type and mutant kinases (313 kinase panel) (Homo sapiens, UniProt Q9BXA7); conditions: kinase TSSK1; 1 μM
T2 sequence (Q9BXA7 1-367): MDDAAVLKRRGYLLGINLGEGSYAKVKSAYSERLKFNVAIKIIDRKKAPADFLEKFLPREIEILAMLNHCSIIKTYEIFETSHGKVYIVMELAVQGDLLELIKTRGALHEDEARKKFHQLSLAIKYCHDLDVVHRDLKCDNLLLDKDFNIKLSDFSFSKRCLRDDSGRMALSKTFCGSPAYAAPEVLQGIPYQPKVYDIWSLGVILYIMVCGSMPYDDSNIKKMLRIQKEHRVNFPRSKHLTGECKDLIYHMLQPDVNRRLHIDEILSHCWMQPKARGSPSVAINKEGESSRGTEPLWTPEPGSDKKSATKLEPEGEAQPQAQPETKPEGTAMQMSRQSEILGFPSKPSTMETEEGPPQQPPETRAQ

[6] = target: T3, panel of more than 300 wild-type and mutant kinases (313 kinase panel) (Homo sapiens, UniProt P52564); conditions: kinase MAP2K6; compound at 1 μM
T3 sequence (P52564 1-334): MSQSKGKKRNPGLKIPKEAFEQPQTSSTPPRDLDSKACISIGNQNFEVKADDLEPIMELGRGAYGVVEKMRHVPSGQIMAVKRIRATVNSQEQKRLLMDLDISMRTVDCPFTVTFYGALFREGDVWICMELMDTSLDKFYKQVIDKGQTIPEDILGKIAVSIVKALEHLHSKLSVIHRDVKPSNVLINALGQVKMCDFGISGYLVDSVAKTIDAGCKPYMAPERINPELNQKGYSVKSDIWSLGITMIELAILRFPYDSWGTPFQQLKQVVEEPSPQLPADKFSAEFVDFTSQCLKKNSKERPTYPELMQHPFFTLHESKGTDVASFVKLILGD

[7] = target: panel of more than 300 wild-type and mutant kinases (313 kinase panel) (Homo sapiens, UniProt P50750); conditions: kinase CDK9/CycT1; 1 μM compound
[8] = target: panel of more than 300 wild-type and mutant kinases (313 kinase panel) (Homo sapiens, UniProt Q8N568); conditions: kinase DCAMKL2; compound at 1 μM

Structure (SMILES) | %-inhibition of EPHB2 [1] [%] | %-inhibition, CaMK1δ [2] [%] | %-inhibition of IGF1R [3] [%] | %-inhibition, CLK2 [4] [%] | %-inhibition of TSSK1 [5] [%] | %-inhibition of MAP2K6 [6] [%] | %-inhibition, CDK9/CycT1 [7] [%] | %-inhibition of DCAMKL2 [8] [%]
O=S(=O)(c1cccc2cnccc12)N1CCCNCC1 [fasudil] | -7.43 | -4 | -13 | -0.292 | 26 | 2.2 | 26 | -2
Cc1cn(-c2cc(NC(=O)c3ccc(C)c(Nc4nccc(-c5cccnc5)n4)c3)cc(C(F)(F)F)c2)cn1 [nilotinib] | 85 | 3.56 | -11 | 1.71 | -2.32 | 84 | 9 | -17
COc1cc2nccc(Oc3ccc(NC(=O)C4(C(=O)Nc5ccc(F)cc5)CC4)cc3)c2cc1OC [cabozantinib] | 96 | -1.37 | 11 | -5.26 | -1.49 | 83 | -5.37 | -2.62
